Measured values: patent US11505575B2, “Cyclic polypeptides for PCSK9 inhibition” (Merck Sharp & Dohme LLC, priority 2018, dated 2022)
*1 amine or outer side, *2 acyl side, *3 side chain or, on linkers, in order; H or OH if unused. Where a SMILES comes first, the peptide text is derived from it. Bridges are numbered along the chain shown (N, C = ends). [ ]: non-standard residue; d: D form. X6 = C[C@@H](O)[C@H](CC(=O)[C@H](Cc1cnc[nH]1)N[*:1])C(=O)[*:2]; 3Aminoazetidine3carboxyl = O=C(C1(N[*:1])CN([*:3])C1)[*:2]; Ala(4-isoquinolinyl) = N[C@@H](Cc1cncc2ccccc12)C(=O)O; Trp(7-aza) = N[C@@H](Cc1c[nH]c2ncccc12)C(=O)O; mXylylene(5-F) = Fc1cc(C[*:1])cc(C[*:2])c1; X2 = O=C(CCSCc1cccc(CSCCN[*:1])c1)[*:2]; 1Nal = N[C@@H](Cc1cccc2ccccc12)C(=O)O; mXylylene = c1cc(C[*:1])cc(C[*:2])c1; aThr = C[C@H](O)[C@H](N)C(=O)O; αMeOrn = C[C@](N)(CCCN)C(=O)O; Chg = N[C@H](C(=O)O)C1CCCCC1; Tle = CC(C)(C)[C@H](N)C(=O)O; αMeK = C[C@](N)(CCCCN)C(=O)O; αMeV = CC(C)[C@](C)(N)C(=O)O; Nva = CCC[C@H](N)C(=O)O; Aib = CC(C)(N)C(=O)O; Ahx = NCCCCCC(=O)O; GABA = NCCCC(=O)O; Mpa = O=C(O)CCS

Legend:
[1] = molecular target: human PCSK9 / human LDLR EGFa domain interaction (Homo sapiens, UniProt Q8NBP7); assay: TR-FRET assay of inhibition of the PCSK9-LDLR protein-protein interaction; assay type: binding; conditions: 20 nM biotinylated human PCSK9 + 20 nM his-tagged human LDLR EGFa domain, 2 hours room temperature
human PCSK9 / human LDLR EGFa domain interaction, sequence (Q8NBP7 153-692): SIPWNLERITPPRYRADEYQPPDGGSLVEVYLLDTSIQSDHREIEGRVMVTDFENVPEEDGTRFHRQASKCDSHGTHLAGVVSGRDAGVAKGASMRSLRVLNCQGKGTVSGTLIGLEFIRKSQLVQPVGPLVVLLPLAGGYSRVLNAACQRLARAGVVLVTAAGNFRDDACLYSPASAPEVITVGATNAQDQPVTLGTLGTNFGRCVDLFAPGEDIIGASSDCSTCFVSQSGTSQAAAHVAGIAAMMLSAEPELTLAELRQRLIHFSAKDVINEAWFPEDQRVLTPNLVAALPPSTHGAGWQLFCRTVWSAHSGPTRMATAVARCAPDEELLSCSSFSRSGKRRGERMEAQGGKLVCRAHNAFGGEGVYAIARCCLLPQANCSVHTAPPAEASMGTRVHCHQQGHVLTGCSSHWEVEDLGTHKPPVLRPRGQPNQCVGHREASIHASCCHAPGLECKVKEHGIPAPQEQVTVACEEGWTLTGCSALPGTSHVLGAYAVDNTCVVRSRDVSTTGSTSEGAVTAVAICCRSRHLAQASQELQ
human PCSK9 / human LDLR EGFa domain interaction, sequence (Q8NBP7 31-152 partner limits assumed): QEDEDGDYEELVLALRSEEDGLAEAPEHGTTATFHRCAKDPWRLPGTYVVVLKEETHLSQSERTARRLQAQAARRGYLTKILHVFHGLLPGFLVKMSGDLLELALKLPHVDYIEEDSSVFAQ
Description: A time-resolved fluorescence resonance energy (TR-FRET) assay was used to measure inhibition of the PCSK9-LDLR protein-protein interaction. Briefly, 20 nM avitag-biotinylated human PCSK9 was incubated with 20 nM his-tagged human LDLR EGFa domain in the presence of 5 nM LANCE Ulight Streptavidin (Perkin Elmer) and 5 nM europium-Anti-6×His (Perkin Elmer) for 2 hours covered at room temperature in buffer containing 50 mM HEPES, 150 mM NaCl, 5 mM CaCl2, 0.01% BSA and 0.01% Surfactant P20. Compounds were tested in dose-response and concentrations giving half-maximal inhibition calculated using a 4-parameter fit equation.

PCSK9 = molecular target: T1, PCSK9 (Homo sapiens, UniProt Q8NBP7); assay: PCSK9 Alexa FRET Standard assay (displacement of AlexaFluor647-tagged cyclic peptide Reagent A); assay type: binding; conditions: 0.5 nM PCSK9, 20 nM AF cyclic peptide Reagent A
T1 construct: biotin (biotinylated)
T1 sequence (Q8NBP7 153-692): as the sequence (Q8NBP7 153-692) above
Description: A solution containing 1 nM biotinylated PCSK9+2.5 nM Lance Streptavidin Europium (Strep-Eu) was made in 50 mM HEPES pH 7.4, 0.15 M NaCl, 5 mM CaCl2, 0.01% BSA, and 0.01% Surfactant P20. A separate solution containing 40 nM of the AlexaFluor tagged cyclic peptide was made in the same buffer system. An Echo was used to transfer 0.750 ul of compound to an assay plate followed by the addition of 15 ul of PCSK9+Stept-Eu and 15 ul of AF peptide. The final assay volume was 30.750 ul containing 0.5 nM PCSK9, 1.25 nM Strep-Eu, and 20 nM AF cyclic peptide. The reaction was incubated at room temperature for at least two hours prior to fluorescence measurements using an Envision Multilabel Reader. IC50 values were determined by fitting data to a sigmoidal dose-response curve using nonlinear regression. Ki was then calculated from the IC50 and the KD of AF cyclic peptide. Counts (B-counts) of the europium-labeled PCSK9 were followed to observe if compounds were […]. A fall off of the B-counts likely indicated a false positive of inhibition. Data from this procedure was reported as “A=‘numerical value’ (nanomolar)”

Structure (SMILES) | IC50 [1] [nM] | IC50 (PCSK9) [nM]
CCC[C@H](NC(=O)[C@H](CCCCN)NC(C)=O)C(=O)N[C@H]1CSCc2cccc(c2)CSC[C@@H](C(N)=O)NC(=O)[C@H]([C@@H](C)O)NC(=O)[C@H](C2CCCCC2)NC(=O)[C@H](Cc2c[nH]c3ncccc23)NC(=O)[C@H](Cc2cnc[nH]2)NC(=O)[C@H](CCC(=O)O)NC(=O)[C@H](Cc2c[nH]c3ncccc23)NC(=O)[C@H]([C@@H](C)O)NC(=O)[C@@H]2CCCN2C(=O)[C@H](Cc2ccc(O)cc2)NC(=O)[C@H](C(C)(C)C)NC1=O [Compound 002] (Ac-K[Nva]C[Tle]YPT[Trp(7-aza)]EH[Trp(7-aza)][Chg]TC-NH2; linker 3-14 via mXylylene) | 1 to 100 | 1 to 100
CC1O[C@@H](C)[C@@H]2NC(=O)[C@@]1(C)NC(=O)[C@H](Cc1ccc(O)cc1)NC(=O)[C@H](C)NC(=O)C(C)(C)NC(=O)[C@H](Cc1c[nH]c3ncccc13)NC(=O)[C@H]([C@@H](C)O)NC(=O)[C@@H]1CCCN1C(=O)[C@H](Cc1ccc(O)cc1)NC(=O)[C@H](C(C)(C)C)NC(=O)CCSCc1cccc(c1)CSC[C@@H](C(N)=O)NC2=O (stereo partly shown) [Compound 017] | 100 to 1000 | 1 to 100
CC(C)[C@@H]1NC(=O)CCSCc2cccc(c2)CSCCNC(=O)[C@H](C)NC(=O)[C@](C)(C(C)C)NC(=O)[C@H](Cc2ccccc2)NC(=O)[C@H](C)NC(=O)C(C)(C)NC(=O)[C@H](Cc2cccc3ccccc23)NC(=O)[C@H]([C@@H](C)O)NC(=O)[C@@H]2CCCN2C(=O)[C@H](Cc2ccccc2)NC1=O [Compound 021] (cyclo([1Nal][Aib]AF[αMeV]A[X2]VFPT)) | 100 to 1000 | 1 to 100
CCC[C@@H]1NC(=O)[C@H](Cc2cccc3ccccc23)NC(=O)[C@H]([C@@H](C)O)NC(=O)[C@@H]2CCCN2C(=O)[C@H](Cc2ccccc2)NC(=O)[C@H](C(C)C)NC(=O)CCSCc2cccc(c2)CSCCNC(=O)[C@H](C)NC(=O)[C@](C)(C(C)C)NC(=O)[C@H](Cc2ccccc2)NC(=O)[C@H](C)NC1=O [Compound 022] (cyclo([1Nal][Nva]AF[αMeV]A[X2]VFPT)) | 100 to 1000 | 1 to 100
CC(=O)N[C@H]1CSCc2cc(F)cc(c2)CSC[C@@H](C(N)=O)NC(=O)[C@H]([C@@H](C)O)NC(=O)[C@](C)(C(C)C)NC(=O)[C@H](Cc2ccc(O)cc2)NC(=O)[C@H](C)NC(=O)C(C)(C)NC(=O)[C@H](Cc2c[nH]c3ncccc23)NC(=O)[C@H]([C@@H](C)O)NC(=O)[C@@H]2CCCN2C(=O)[C@H](Cc2ccc(O)cc2)NC(=O)[C@H](C(C)(C)C)NC1=O [Compound 026] (Ac-C[Tle]YPT[Trp(7-aza)][Aib]AY[αMeV]TC-NH2; linker 1-12 via mXylylene(5-F)) | – | 1 to 100
CC(=O)N[C@H]1CSCc2cccc(c2)CSC[C@H](C(N)=O)NC(=O)[C@H]([C@@H](C)O)NC(=O)[C@](C)(C(C)C)NC(=O)[C@H](Cc2ccc(O)cc2)NC(=O)[C@H](C)NC(=O)C2(CNC2)NC(=O)[C@H](Cc2c[nH]c3ncccc23)NC(=O)[C@H]([C@@H](C)O)NC(=O)[C@@H]2CCCN2C(=O)[C@H](Cc2ccc(O)cc2)NC(=O)[C@H](C(C)(C)C)NC1=O [Compound 038] (Ac-C[Tle]YPT[Trp(7-aza)][3Aminoazetidine3carboxyl]AY[αMeV]T[dC]-NH2; linker 1-12 via mXylylene) | – | 1 to 100
CCC[C@@H]1NC(=O)[C@H](Cc2cncc3ccccc23)NC(=O)[C@H]([C@@H](C)O)CC(=O)[C@H](Cc2cnc[nH]2)NC(=O)[C@H](Cc2ccc(O)cc2)NC(=O)[C@H](C(C)(C)C)NC(=O)CCSCc2cccc(c2)CSC[C@@H](C(N)=O)NC(=O)[C@H]([C@@H](C)O)NC(=O)[C@H](CCC)NC(=O)[C@H](Cc2ccc(O)cc2)NC(=O)[C@H](CCC(=O)O)NC1=O [Compound 052] ([Mpa][Tle]Y[X6][Ala(4-isoquinolinyl)][Nva]EY[Nva]TC-NH2; linker 1-11 via mXylylene) | 100 to 1000 | 100 to 1000
CCC[C@@H]1NC(=O)[C@H](Cc2c[nH]c3ncccc23)NC(=O)[C@H]([C@@H](C)O)NC(=O)[C@@H]2CCCCNC(=O)CC[C@H](NC1=O)C(=O)N[C@@H](Cc1ccc(O)cc1)C(=O)NC(C)(C)C(=O)N[C@@H]([C@@H](C)O)C(=O)N[C@H](C(N)=O)CSCc1cccc(c1)CSCCC(=O)N[C@@H](C(C)(C)C)C(=O)N[C@@H](Cc1ccc(O)cc1)C(=O)N2 [Compound 114] ([Mpa][Tle]YKT[Trp(7-aza)][Nva]EY[Aib]TC-NH2; linker 1-12 via mXylylene; lactam 4-8) | 100 to 1000 | –
CCC[C@@H]1NC(=O)[C@H](Cc2c[nH]c3ncccc23)NC(=O)[C@H]([C@@H](C)O)NC(=O)[C@@H]2CCCCNC(=O)CC[C@@H](NC1=O)C(=O)N[C@@H](Cc1ccc(O)cc1)C(=O)N[C@@H](C1CCCCC1)C(=O)N[C@@H]([C@@H](C)O)C(=O)NCCCC(=O)NCCCCCC(=O)N[C@@H](C(C)(C)C)C(=O)N[C@@H](Cc1ccc(O)cc1)C(=O)N2 [Compound 117] (cyclo([Ahx][Tle]YKT[Trp(7-aza)][Nva][dE]Y[Chg]T[GABA]); lactam 4-8) | 100 to 1000 | –

Next, values leading:

IC50 [1] [nM] | IC50 (PCSK9) [nM] | Structure (SMILES)
1 to 100 | 1 to 100 | CC(C)[C@]1(C)NC(=O)[C@H](Cc2ccc(O)cc2)NC(=O)[C@H](C)NC(=O)C(C)(C)NC(=O)[C@H](Cc2c[nH]c3ncccc23)NC(=O)[C@H]([C@@H](C)O)NC(=O)[C@@H]2CCCN2C(=O)[C@H](Cc2ccc(O)cc2)NC(=O)[C@H](C(C)(C)C)NC(=O)CCSCc2cccc(c2)CSC[C@@H](C(N)=O)NC(=O)[C@H](CO)NC1=O [Compound 018] ([Mpa][Tle]YPT[Trp(7-aza)][Aib]AY[αMeV]SC-NH2; linker 1-12 via mXylylene)
21000 to 50000 | 1000 to 12100 | CC(C)[C@]1(C)NC(=O)[C@H](Cc2ccc(O)cc2)NC(=O)[C@H](C)NC(=O)C(C)(C)NC(=O)[C@H](Cc2c[nH]c3ncccc23)NC(=O)[C@H]([C@@H](C)O)NC(=O)[C@@H]2CCCN2C(=O)[C@H](Cc2ccc(O)cc2)NC(=O)[C@H](C(C)(C)C)NC(=O)CCSCc2cccc(c2)CSC[C@@H](C(N)=O)NC(=O)[C@H](CCCCN)NC1=O [Compound 019] ([Mpa][Tle]YPT[Trp(7-aza)][Aib]AY[αMeV]KC-NH2; linker 1-12 via mXylylene)
21000 to 50000 | 1000 to 12100 | CC(C)[C@]1(C)NC(=O)[C@H](Cc2ccc(O)cc2)NC(=O)[C@H](CCC(=O)O)NC(=O)C(C)(C)NC(=O)[C@H](Cc2c[nH]c3ncccc23)NC(=O)[C@H]([C@@H](C)O)NC(=O)[C@@H]2CCCN2C(=O)[C@H](Cc2ccc(O)cc2)NC(=O)[C@H](C(C)(C)C)NC(=O)CCSCc2cccc(c2)CSC[C@@H](C(N)=O)NC(=O)[C@H]([C@H](C)O)NC1=O [Compound 020] ([Mpa][Tle]YPT[Trp(7-aza)][Aib]EY[αMeV][aThr]C-NH2; linker 1-12 via mXylylene)
1 to 100 | 1 to 100 | CC(C)[C@]1(C)NC(=O)[C@H](Cc2ccc(O)cc2)NC(=O)[C@H](C)NC(=O)[C@](C)(CCCCN)NC(=O)[C@H](Cc2c[nH]c3ncccc23)NC(=O)[C@H]([C@@H](C)O)NC(=O)[C@@H]2CCCN2C(=O)[C@H](Cc2ccc(O)cc2)NC(=O)[C@H](C(C)(C)C)NC(=O)CCSCc2cccc(c2)CSC[C@@H](C(N)=O)NC(=O)[C@H]([C@@H](C)O)NC1=O [Compound 023] ([Mpa][Tle]YPT[Trp(7-aza)][αMeK]AY[αMeV]TC-NH2; linker 1-12 via mXylylene)
– | 1 to 100 | CC(C)[C@]1(C)NC(=O)[C@H](Cc2ccc(O)cc2)NC(=O)[C@H](C)NC(=O)[C@](C)(CCCN)NC(=O)[C@H](Cc2c[nH]c3ncccc23)NC(=O)[C@H]([C@@H](C)O)NC(=O)[C@@H]2CCCN2C(=O)[C@H](Cc2ccc(O)cc2)NC(=O)[C@H](C(C)(C)C)NC(=O)CCSCc2cccc(c2)CSC[C@H](C(N)=O)NC(=O)[C@H]([C@@H](C)O)NC1=O [Compound 025] ([Mpa][Tle]YPT[Trp(7-aza)][αMeOrn]AY[αMeV]T[dC]-NH2; linker 1-12 via mXylylene)
– | 100 to 1000 | CC(=O)N[C@H]1CSCc2cccc(c2)CSC[C@H](C(N)=O)NC(=O)[C@H]([C@@H](C)O)NC(=O)[C@](C)(C(C)C)NC(=O)[C@H](Cc2ccc(O)cc2)NC(=O)[C@H](C)NC(=O)C(C)(C)NC(=O)[C@H](Cc2c[nH]c3ncccc23)NC(=O)[C@H]([C@H](C)O)NC(=O)[C@@H]2CCCN2C(=O)[C@H](Cc2ccc(O)cc2)NC(=O)[C@H](C(C)(C)C)NC1=O [Compound 029] (Ac-C[Tle]YP[aThr][Trp(7-aza)][Aib]AY[αMeV]T[dC]-NH2; linker 1-12 via mXylylene)
– | 1 to 100 | CC(=O)N[C@H]1CSCc2cccc(c2)CSC[C@H](C(N)=O)NC(=O)[C@H]([C@@H](C)O)NC(=O)[C@](C)(C(C)C)NC(=O)[C@H](Cc2ccc(O)cc2)NC(=O)[C@H](C)NC(=O)[C@](C)(CCCN)NC(=O)[C@H](Cc2c[nH]c3ncccc23)NC(=O)[C@H]([C@@H](C)O)NC(=O)[C@@H]2CCCN2C(=O)[C@H](Cc2ccc(O)cc2)NC(=O)[C@H](C(C)(C)C)NC1=O [Compound 033] (Ac-C[Tle]YPT[Trp(7-aza)][αMeOrn]AY[αMeV]T[dC]-NH2; linker 1-12 via mXylylene)
